Laboratory results as given in ChEMBL document CHEMBL3137667, “[Drug-induced liver injury; fourteenth updated edition of the bibliographic database of liver injuries and related drugs]” (Gastroenterol Clin Biol, 2004).

Columns and labels:
[1] = Proposed mechanism(s) of liver damage. [column 'MEC' in source]; conditions: human
[2] = human
[3] = human; remark: listed apart in the source
[4] = human; remark: listed apart in the source
[5] = human, serum
[6] = Comments (NB not yet translated). [column 'COMMENTAIRES' in source]; conditions: human
[7] = human, serum; remark: listed apart in the source
[8] = human; remark: listed apart in the source
[9] = Highest frequency of moderate liver toxicity observed during clinical trials, expressed as a percentage. [column '% BIOL' in source]; conditions: human
[10] = human, serum, 4383 h
[11] = human; remark: listed apart in the source
[12] = Presence of at least one case with successful reintroduction. [column 'REINT' in source]; conditions: human
[13] = human; remark: listed apart in the source
[14] = human; remark: listed apart in the source
[15] = human; remark: listed apart in the source
[16] = Highest frequency of acute liver toxicity observed during clinical trials, expressed as a percentage. [column '% AIGUE' in source]; conditions: human
[17] = human; remark: listed apart in the source
[18] = Times to onset, minimal and maximal, observed in the indexed observations. [column 'DELAI' in source]; conditions: human
[19] = human; remark: listed apart in the source
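Wherever Hepatotoxicity (association with vascular disease) is given: count of indexed literature references reporting vascular liver injury in humans, e.g. peliosis hepatitis, hepatic veno-occlusive disease or Budd-Chiari syndrome.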
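Wherever Hepatotoxicity (benign tumour) is given: value is a count of indexed literature references citing a benign tumour confirmed by histopathology.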
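Wherever Hepatotoxicity (choleostasis) is given: human cholestatic liver injury, shown by histopathology or by peak ALT or AST elevation over alkaline phosphatase ratio below 2, value counts indexed literature reports.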
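Wherever Hepatotoxicity (chronic liver disease) is given: chronic liver injury confirmed by histopathology or persistently raised serum aminotransferase activity beyond 6 months, value given as the count of indexed literature references.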
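Wherever Hepatotoxicity (cirrhosis) is given: value is a count of indexed literature references reporting cirrhosis confirmed by histopathology.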
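Wherever Hepatotoxicity (cytolytic) is given: human cytolytic liver injury, shown by histopathology or by a ratio above 5 of peak ALT or AST elevation to alkaline phosphatase elevation, value counts indexed references.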
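Wherever Hepatotoxicity (granulomatous hepatitis) is given: value is a count of indexed literature references reporting granulomatous liver disease confirmed by histopathology.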
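Wherever Hepatotoxicity (malignant tumour) is given: malignant tumour confirmed by histopathology, value gives the count of indexed literature references reporting it.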
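Wherever Hepatotoxicity (severe hepatitis) is given: human clinical data: severe hepatitis, meaning potentially life-threatening liver failure or clinically observed cases, the value counts how many indexed literature references report it.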
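Wherever Hepatotoxicity (steatosis) is given: steatosis confirmed by histopathology, value is the count of indexed references.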

Structure (SMILES) | Hepatotoxicity (mechanism) [1] | Hepatotoxicity (animal toxicity known) [2] | Hepatotoxicity (steatosis) [3] | Hepatotoxicity (malignant tumour) [4] | Hepatotoxicity (moderate) [5] | Hepatotoxicity (comment) [6] | Hepatotoxicity (acute) [7] | Hepatotoxicity (granulomatous hepatitis) [8] | Hepatotoxicity (moderate) [9] [%] | Hepatotoxicity (chronic liver disease) [10] | Hepatotoxicity (benign tumour) [11] | Hepatotoxicity (successful reintroduction) [12] | Hepatotoxicity (cytolytic) [13] | Hepatotoxicity (association with vascular disease) [14] | Hepatotoxicity (cirrhosis) [15] | Hepatotoxicity (acute) [16] [%] | Hepatotoxicity (choleostasis) [17] | Hepatotoxicity (time to onset) [18] | Hepatotoxicity (severe hepatitis) [19]
CC(C)NNC(=O)c1ccncc1 [IPRONIAZID] | Allergic, Reactive metabolite | yes | 0 | 0 | 2 | AC_ANTI-M6 RC/PHENIPRAZINE | 30 | 0 | 30 | 3 | 0 | yes | 28 | 0 | 3 | 1.4 | 3 | 3 days - 1 year | 18
CC(C)Nc1ncccn1 [ISAXONINE] | Allergic, Reactive metabolite | yes | 1 | 0 | 0 | AC_ANTI-MFR1 | 13 | 1 | 0 | 0 | 0 | yes | 13 | 0 | 0 | 0 | 3 | 1 month - 6 months | 4
FC(F)OC(Cl)C(F)(F)F (centres undefined) [ISOFLURANE] | Allergic, Reactive metabolite | yes | 2 | 0 | 5 | AC_ANTI-MFR/-TFA I/ALCOOL | 25 | 0 | 13.3 | 0 | 0 | yes | 20 | 0 | 0 | 0 | 1 | < 1 day - 3 weeks | 11
NNC(=O)c1ccncc1 [ISONIAZID] | Dose-dependant, Reactive metabolite | yes | 1 | 0 | 60 | I/CARBAMAZE/ENFLURANE/PARACETAMOL/RIFAMPICINE/RIFAMYCINE/VALPROATE | 91 | 1 | 51.2 | 3 | 0 | yes | 61 | 0 | 4 | 26.7 | 11 | 1 day - 1 year | 40
CC(=O)N1CCN(c2ccc(OCC3COC(Cn4ccnc4)(c4ccc(Cl)cc4Cl)O3)cc2)CC1 (centres undefined) [KETOCONAZOLE] | Toxic, Dose-dependant | yes | 2 | 0 | 62 | CHOLESTASE_PROLONGEE | 45 | 1 | 50 | 3 | 0 | yes | 37 | 0 | 0 | 2.9 | 19 | 3 days - 5 years | 14
COC(=O)Nc1nc2ccc(C(=O)c3ccccc3)cc2[nH]1 [MEBENDAZOLE] | Allergic, Dose-dependant | yes | 0 | 0 | 13 | AC_ANTI-ML I/CIMETIDINE | 3 | 1 | 30 | 0 | 0 | yes | 3 | 0 | 0 | 0 | 0 | 2 days - 2 months | 0
Cc1ccc(S(=O)(=O)NC(=O)NC2CCCCC2)cc1N [METAHEXAMIDE] | Dose-dependant | yes | 0 | 0 | 6 | PERICHOLANGITE RC/CARBUTAMIDE | 11 | 0 | 24 | 0 | 0 | yes | 7 | 0 | 1 | 4.4 | 4 | 4 days - 1 week | 2
CN(Cc1cnc2nc(N)nc(N)c2n1)c1ccc(C(=O)N[C@@H](CCC(=O)O)C(=O)O)cc1 [METHOTREXATE] | Dose-dependant | yes | 16 | 8 | 173 | I/ETRETINATE REACTIVATION_HVB SHNA MVO | 26 | 8 | 88 | 45 | 0 | yes | 21 | 5 | 42 | 35 | 2 | 4 hours - 16 years | 5
COC(F)(F)C(Cl)Cl [METHOXYFLURANE] | Allergic, Reactive metabolite | yes | 3 | 0 | 8 | RC/HALOTHANE | 32 | 0 | 0 | 0 | 0 | yes | 27 | 0 | 0 | 0 | 0 | 1 day - 20 days | 19
CN(C)c1ccc(O)c2c1C[C@H]1C[C@H]3[C@H](N(C)C)C(O)=C(C(N)=O)C(=O)[C@@]3(O)C(O)=C1C2=O [MINOCYCLINE] | Allergic, Dose-dependant, Toxic Metabolite | yes | 2 | 0 | 17 | AC_ANTI-N/-ADN/-pNCA REACTIVATION_VH-6 | 48 | 1 | 41.7 | 11 | 0 | yes | 36 | 0 | 0 | 0 | 2 | 4 days - 12 years | 8
CCC(=O)O[C@](Cc1ccccc1)(c1ccccc1)[C@H](C)CN(C)C [PROPOXYPHENE] | Allergic, Dose-dependant | yes | 0 | 0 | 6 | CHOLANGITE | 21 | 0 | 14.3 | 1 | 0 | yes | 7 | 0 | 0 | 0 | 20 | 1 day - 1.5 years | 0
